Data on ten compounds can be found in patent US9428503B2, “Imidazo[4,5-c]quinolin-2-one compounds and their use in treating Cancer” (AstraZeneca AB, priority 2014, dated 2016).

Structures can show the parent of a compound that is named as a salt.

The term IC50 denotes the midpoint of a concentration-inhibition curve.

Common to all, as to format: cell-based
One test concerns the target PI3K-α (Homo sapiens, UniProt P42336). Description: Assay c) PI3K cellular potency assay (phospho-Akt T308 ELISA in BT474 cells). The settings on record: BT474 cells, phospho-Akt T308, 2 h; geometric mean where repeated; read-out: Assay c) PI3Kα Cell IC50.
The target in the next test is mTOR (Homo sapiens (Human), UniProt P42345). Description: Assay d) mTOR cellular potency assay (phospho-AKT Ser473 in MDA-MB-468 cells). The settings on record: MDA-MB-468 cells, phospho-AKT Ser473, 2 h; geometric mean where repeated; read-out: Assay d) mTOR Cell IC50.
Another test deals with ATR kinase (Homo sapiens (Human), UniProt Q13535). Description: Assay b) ATR cellular potency assay (pChk1 Ser345 in HT29 cells treated with 4NQO). The conditions noted are these: HT29 cells, pChk1 Ser345 after 4NQO; geometric mean where repeated; read-out: Assay b) ATR Cell IC50.
Chain of ATR kinase (Q13535 whole entry): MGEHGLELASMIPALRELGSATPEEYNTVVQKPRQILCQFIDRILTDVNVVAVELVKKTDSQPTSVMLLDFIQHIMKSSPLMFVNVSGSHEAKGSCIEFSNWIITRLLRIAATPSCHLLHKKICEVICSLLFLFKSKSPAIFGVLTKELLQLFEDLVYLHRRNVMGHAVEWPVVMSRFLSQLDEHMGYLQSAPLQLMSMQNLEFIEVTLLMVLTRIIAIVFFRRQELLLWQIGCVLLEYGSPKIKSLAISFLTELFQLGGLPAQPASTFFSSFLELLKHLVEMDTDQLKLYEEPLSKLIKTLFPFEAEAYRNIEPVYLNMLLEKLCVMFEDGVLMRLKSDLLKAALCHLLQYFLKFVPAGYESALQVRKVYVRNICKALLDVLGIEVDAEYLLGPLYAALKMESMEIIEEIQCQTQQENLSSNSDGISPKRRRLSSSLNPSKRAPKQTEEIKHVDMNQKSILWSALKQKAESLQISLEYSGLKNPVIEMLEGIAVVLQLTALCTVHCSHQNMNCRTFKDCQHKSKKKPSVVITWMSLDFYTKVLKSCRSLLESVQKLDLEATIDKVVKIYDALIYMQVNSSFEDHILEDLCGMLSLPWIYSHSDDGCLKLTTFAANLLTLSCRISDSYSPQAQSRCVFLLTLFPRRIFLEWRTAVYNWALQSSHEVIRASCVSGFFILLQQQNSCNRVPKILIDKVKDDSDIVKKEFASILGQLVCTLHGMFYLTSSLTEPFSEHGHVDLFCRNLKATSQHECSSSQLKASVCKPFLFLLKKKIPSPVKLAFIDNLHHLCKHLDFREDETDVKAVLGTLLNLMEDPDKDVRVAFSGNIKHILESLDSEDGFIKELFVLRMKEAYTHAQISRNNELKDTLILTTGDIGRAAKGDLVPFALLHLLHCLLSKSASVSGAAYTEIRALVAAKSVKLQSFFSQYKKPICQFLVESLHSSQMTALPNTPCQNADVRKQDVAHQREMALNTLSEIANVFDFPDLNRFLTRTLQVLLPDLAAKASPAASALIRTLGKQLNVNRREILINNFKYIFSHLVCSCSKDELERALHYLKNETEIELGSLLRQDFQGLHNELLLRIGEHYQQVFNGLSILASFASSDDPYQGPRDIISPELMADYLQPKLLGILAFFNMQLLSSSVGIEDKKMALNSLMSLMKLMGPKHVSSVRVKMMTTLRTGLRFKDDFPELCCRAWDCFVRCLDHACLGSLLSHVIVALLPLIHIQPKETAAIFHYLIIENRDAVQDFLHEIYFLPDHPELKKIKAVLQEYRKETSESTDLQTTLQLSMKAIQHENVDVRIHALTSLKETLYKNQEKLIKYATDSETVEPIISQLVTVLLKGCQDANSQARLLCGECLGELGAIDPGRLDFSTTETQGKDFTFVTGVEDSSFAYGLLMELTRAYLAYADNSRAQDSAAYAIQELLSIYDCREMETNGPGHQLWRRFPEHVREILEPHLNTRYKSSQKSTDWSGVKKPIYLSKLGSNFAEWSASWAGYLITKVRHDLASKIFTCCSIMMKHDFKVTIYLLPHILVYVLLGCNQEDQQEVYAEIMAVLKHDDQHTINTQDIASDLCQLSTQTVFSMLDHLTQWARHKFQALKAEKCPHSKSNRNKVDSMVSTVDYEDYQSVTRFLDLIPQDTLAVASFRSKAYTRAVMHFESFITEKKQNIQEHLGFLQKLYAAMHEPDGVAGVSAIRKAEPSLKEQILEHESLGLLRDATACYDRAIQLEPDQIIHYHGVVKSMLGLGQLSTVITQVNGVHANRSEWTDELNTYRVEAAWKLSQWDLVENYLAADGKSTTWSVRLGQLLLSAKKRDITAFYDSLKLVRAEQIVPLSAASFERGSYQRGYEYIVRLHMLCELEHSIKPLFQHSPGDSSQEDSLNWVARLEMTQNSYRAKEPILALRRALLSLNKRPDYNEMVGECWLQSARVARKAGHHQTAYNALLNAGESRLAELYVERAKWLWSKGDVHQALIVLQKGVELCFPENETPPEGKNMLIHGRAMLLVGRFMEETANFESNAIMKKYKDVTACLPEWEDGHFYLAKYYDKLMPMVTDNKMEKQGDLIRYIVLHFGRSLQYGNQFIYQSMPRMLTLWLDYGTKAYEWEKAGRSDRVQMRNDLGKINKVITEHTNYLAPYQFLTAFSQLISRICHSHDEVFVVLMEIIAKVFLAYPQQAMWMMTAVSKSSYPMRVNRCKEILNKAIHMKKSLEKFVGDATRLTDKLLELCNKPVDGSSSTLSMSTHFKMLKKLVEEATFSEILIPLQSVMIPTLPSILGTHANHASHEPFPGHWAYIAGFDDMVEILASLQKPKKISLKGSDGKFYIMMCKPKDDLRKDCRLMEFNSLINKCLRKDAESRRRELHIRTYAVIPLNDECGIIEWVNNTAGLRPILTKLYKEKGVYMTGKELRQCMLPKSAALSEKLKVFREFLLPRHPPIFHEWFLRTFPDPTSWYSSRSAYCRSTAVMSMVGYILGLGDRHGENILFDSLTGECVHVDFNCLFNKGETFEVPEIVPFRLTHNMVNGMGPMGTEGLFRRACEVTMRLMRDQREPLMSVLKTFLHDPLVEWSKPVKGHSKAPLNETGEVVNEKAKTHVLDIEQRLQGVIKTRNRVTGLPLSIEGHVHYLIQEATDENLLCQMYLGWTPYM
Chain of ATR kinase (Q8WXE1 whole entry partner): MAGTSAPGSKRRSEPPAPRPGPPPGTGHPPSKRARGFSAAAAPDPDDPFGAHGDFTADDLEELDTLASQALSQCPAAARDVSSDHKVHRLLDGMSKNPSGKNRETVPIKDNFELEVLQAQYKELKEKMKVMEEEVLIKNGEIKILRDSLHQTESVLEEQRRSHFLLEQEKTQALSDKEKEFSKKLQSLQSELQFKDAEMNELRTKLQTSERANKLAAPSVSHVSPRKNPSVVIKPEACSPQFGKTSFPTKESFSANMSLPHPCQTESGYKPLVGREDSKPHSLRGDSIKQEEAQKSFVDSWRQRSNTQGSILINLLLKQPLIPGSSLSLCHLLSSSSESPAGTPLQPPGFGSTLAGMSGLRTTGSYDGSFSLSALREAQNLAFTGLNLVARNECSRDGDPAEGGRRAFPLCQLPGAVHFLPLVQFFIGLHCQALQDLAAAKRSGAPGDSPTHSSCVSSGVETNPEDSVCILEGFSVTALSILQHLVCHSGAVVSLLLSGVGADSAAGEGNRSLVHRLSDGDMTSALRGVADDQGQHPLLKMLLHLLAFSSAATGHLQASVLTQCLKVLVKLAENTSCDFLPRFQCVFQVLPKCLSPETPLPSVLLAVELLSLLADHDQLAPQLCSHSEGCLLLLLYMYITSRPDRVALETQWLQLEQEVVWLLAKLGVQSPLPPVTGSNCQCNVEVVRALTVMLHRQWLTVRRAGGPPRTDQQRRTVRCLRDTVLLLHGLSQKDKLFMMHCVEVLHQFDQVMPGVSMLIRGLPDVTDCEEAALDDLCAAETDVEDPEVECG

Chain of PI3K-α (P42336 whole entry, looked up): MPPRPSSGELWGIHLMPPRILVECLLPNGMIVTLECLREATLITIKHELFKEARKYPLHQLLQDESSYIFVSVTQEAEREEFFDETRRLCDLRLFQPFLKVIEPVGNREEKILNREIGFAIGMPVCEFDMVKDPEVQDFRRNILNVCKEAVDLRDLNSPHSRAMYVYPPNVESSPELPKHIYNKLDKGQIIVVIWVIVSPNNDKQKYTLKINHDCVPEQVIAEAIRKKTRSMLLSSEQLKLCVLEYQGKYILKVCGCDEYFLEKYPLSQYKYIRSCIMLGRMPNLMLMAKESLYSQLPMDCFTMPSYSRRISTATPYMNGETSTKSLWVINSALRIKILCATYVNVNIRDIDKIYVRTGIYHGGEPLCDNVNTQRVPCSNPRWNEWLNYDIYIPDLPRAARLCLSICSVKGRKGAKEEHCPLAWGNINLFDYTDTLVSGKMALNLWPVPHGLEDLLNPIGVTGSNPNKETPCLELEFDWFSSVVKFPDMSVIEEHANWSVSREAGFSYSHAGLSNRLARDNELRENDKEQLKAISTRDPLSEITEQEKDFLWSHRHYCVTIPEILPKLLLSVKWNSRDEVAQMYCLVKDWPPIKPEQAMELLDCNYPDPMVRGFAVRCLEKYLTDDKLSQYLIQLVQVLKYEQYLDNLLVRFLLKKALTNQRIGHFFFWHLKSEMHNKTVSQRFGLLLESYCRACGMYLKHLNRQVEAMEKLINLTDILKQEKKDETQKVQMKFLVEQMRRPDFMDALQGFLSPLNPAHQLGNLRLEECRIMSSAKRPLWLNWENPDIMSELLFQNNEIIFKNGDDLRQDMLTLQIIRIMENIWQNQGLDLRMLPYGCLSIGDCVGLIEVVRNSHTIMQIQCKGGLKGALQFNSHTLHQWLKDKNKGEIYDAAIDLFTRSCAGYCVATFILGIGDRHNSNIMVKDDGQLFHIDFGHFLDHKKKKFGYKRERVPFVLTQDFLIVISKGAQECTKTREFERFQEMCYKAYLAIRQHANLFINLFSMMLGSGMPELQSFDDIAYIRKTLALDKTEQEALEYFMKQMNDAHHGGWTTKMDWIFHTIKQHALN

On to `CN(C)CCCOc1ccc(-c2ccc3ncc4c(c3c2)n([C@@H]2CCCOC2)c(=O)n4C)cn1` [Example 16, 8-[6-(3-dimethylaminopropoxy)pyridin-3-yl]-3-methyl-1-[(3R)-oxan-3-yl]imidazo[5,4-c]quinolin-2-one], for which the IC50 was 311 nM on PI3K-α, 714 nM on mTOR and over 22800 nM at ATR kinase.

Consider `Cn1c(=O)n([C@H]2CCCOC2)c2c3cc(-c4ccc(OCCCN5CCCC5)nc4)ccc3ncc21` [Example 29, 3-methyl-1-[(3S)-oxan-3-yl]-8-[6-(3-pyrrolidin-1-ylpropoxy)pyridin-3-yl]imidazo[5,4-c]quinolin-2-one], for which the IC50 is 1650 nM at PI3K-α, 605 nM on mTOR and 19000 nM at ATR kinase.

Take `CO[C@H]1C[C@@H](n2c(=O)n(C)c3cnc4ccc(-c5ccc(OCCCN6CCCCC6)nc5)cc4c32)C1` [Example 33, 1-(cis-3-methoxycyclobutyl)-3-methyl-8-[6-(3-piperidin-1-ylpropoxy)pyridin-3-yl]imidazo[4,5-c]quinolin-2-one]: the results for the IC50 at PI3K-α and at mTOR were 12400 nM and 2870 nM, respectively.

Turning to `CO[C@H]1CC[C@H](n2c(=O)n(C)c3cnc4ccc(-c5ccc(OCCCN6CCCC6)nc5)cc4c32)C1` [Example 66, 1-[(1S,3S)-3-methoxycyclopentyl]-3-methyl-8-[6-(3-pyrrolidin-1-ylpropoxy)-3-pyridyl]imidazo[4,5-c]quinolin-2-one], the IC50 at PI3K-α was found to be 1490 nM; on mTOR it was 3320 nM; at ATR kinase, 7850 nM.

Regarding `Cn1c(=O)n([C@@H]2CCCOC2)c2c3cc(-c4ccc(OCCCN5CCCC5)nc4)ccc3ncc21` [Example 59, 3-methyl-8-[6-(3-pyrrolidin-1-ylpropoxy)-3-pyridyl]-1-[(3R)-tetrahydropyran-3-yl]imidazo[4,5-c]quinolin-2-one], the IC50 at PI3K-α is 264 nM; at mTOR it was 610 nM; at ATR kinase, over 19100 nM.

With `Cn1c(=O)n(C2CCOCC2)c2c3cc(-c4ccc(OCCCN5CCCC5)nc4)ccc3ncc21` [Example 30, 3-methyl-1-(oxan-4-yl)-8-[6-(3-pyrrolidin-1-ylpropoxy)pyridin-3-yl]imidazo[5,4-c]quinolin-2-one], the IC50 on PI3K-α turned out to be 2330 nM; at mTOR, 1570 nM; at ATR kinase, 19000 nM.

As for `CN(C)CCCOc1ccc(-c2ccc3ncc4c(c3c2)n(C2COC2)c(=O)n4C)c(F)n1` [Example 52, 8-[6-[3-(dimethylamino)propoxy]-2-fluoro-3-pyridyl]-3-methyl-1-(oxetan-3-yl)imidazo[4,5-c]quinolin-2-one methanesulfonic acid salt], the values for the IC50 on PI3K-α, on mTOR and at ATR kinase were 7200 nM, 12100 nM and over 30000 nM, respectively.

As to `CO[C@H]1C[C@@H](n2c(=O)n(C)c3cnc4cc(F)c(-c5ccc(OCCCN6CCCC6)nc5)cc4c32)C1` [Example 27, 7-Fluoro-1-(cis-3-methoxycyclobutyl)-3-methyl-8-[6-(3-pyrrolidin-1-ylpropoxy)pyridin-3-yl]imidazo[4,5-c]quinolin-2-one], the figures for the IC50 at PI3K-α, on mTOR and on ATR kinase were over 29800 nM, over 17500 nM and over 23300 nM, respectively.

On to `CO[C@@H]1CC[C@@H](n2c(=O)n(C)c3cnc4ccc(-c5ccc(OCCCN6CCCC6)nc5)cc4c32)C1` [Example 67, 1-[(1R,3R)-3-methoxycyclopentyl]-3-methyl-8-[6-(3-pyrrolidin-1-ylpropoxy)-3-pyridyl]imidazo[4,5-c]quinolin-2-one], for which the IC50 on PI3K-α is over 2850 nM; at mTOR it was 996 nM; at ATR kinase, 15200 nM.

Turning to `CN(C)CCCOc1ccc(-c2ccc3ncc4c(c3c2)n([C@H]2CCCOC2)c(=O)n4C)cn1` [Example 17, 8-[6-(3-dimethylaminopropoxy)pyridin-3-yl]-3-methyl-1-[(3S)-oxan-3-yl]imidazo[5,4-c]quinolin-2-one], the IC50 is 968 nM on PI3K-α, 1470 nM on mTOR and over 30000 nM at ATR kinase.
